Assay results reported in the NIST ThermoML archive (doi:10.1021/je300958c).

Assay: relative permittivity at zero frequency (dimensionless)
Details: 101.33 kPa, Liquid, impedance/gain phase analyzer

N#CCCCCCCC#N [octanedinitrile]
Details | relative permittivity at zero frequency
273.15 K | 28.23
275.65 K | 28
278.15 K | 27.77
280.65 K | 27.52
283.15 K | 27.29
285.65 K | 27.06
288.15 K | 26.82
290.65 K | 26.6
293.15 K | 26.36
295.65 K | 26.16
298.15 K | 25.94
300.65 K | 25.75
303.15 K | 25.55
305.65 K | 25.32
308.15 K | 25.11
310.65 K | 24.94
313.15 K | 24.74
315.65 K | 24.55
318.15 K | 24.37
320.65 K | 24.2
323.15 K | 24
325.65 K | 23.8
328.15 K | 23.63
330.65 K | 23.47
333.15 K | 23.3

N#CCCCC#N [pentanedinitrile]
Details | relative permittivity at zero frequency
248.15 K | 40.78
250.65 K | 40.45
253.15 K | 40.08
255.65 K | 39.78
258.15 K | 39.42
260.65 K | 39.08
263.15 K | 38.74
265.65 K | 38.4
268.15 K | 38.1
270.65 K | 37.78
273.15 K | 37.44
275.65 K | 37.16
278.15 K | 36.83
280.65 K | 36.56
283.15 K | 36.27
285.65 K | 35.97
288.15 K | 35.71
290.65 K | 35.41
293.15 K | 35.14
295.65 K | 34.87
298.15 K | 34.6
300.65 K | 34.33
303.15 K | 34.04
305.65 K | 33.83
308.15 K | 33.59
310.65 K | 33.35
313.15 K | 33.13
315.65 K | 32.87
318.15 K | 32.67
320.65 K | 32.44
323.15 K | 32.21

N#CCCC#N [butanedinitrile]
Details | relative permittivity at zero frequency
333.15 K | 56.09
335.65 K | 55.46
338.15 K | 54.85
340.65 K | 54.29
343.15 K | 53.68
345.65 K | 53.11
348.15 K | 52.52
350.65 K | 51.95
353.15 K | 51.36
355.65 K | 50.81
358.15 K | 50.28
360.65 K | 49.73
363.15 K | 49.18
365.65 K | 48.66
368.15 K | 48.14
370.65 K | 47.63
373.15 K | 47.11

N#CCCCCCC#N [heptanedinitrile]
Details | relative permittivity at zero frequency
248.15 K | 36.21
250.65 K | 35.82
253.15 K | 35.44
255.65 K | 35.06
258.15 K | 34.7
260.65 K | 34.35
263.15 K | 33.99
265.65 K | 33.65
268.15 K | 33.31
270.65 K | 32.98
273.15 K | 32.66
275.65 K | 32.36
278.15 K | 32.04
280.65 K | 31.73
283.15 K | 31.43
285.65 K | 31.14
288.15 K | 30.86
290.65 K | 30.57
293.15 K | 30.28
295.65 K | 30
298.15 K | 29.71
300.65 K | 29.45
303.15 K | 29.18
305.65 K | 28.92
308.15 K | 28.67
310.65 K | 28.42
313.15 K | 28.17
315.65 K | 27.94
318.15 K | 27.68
320.65 K | 27.46
323.15 K | 27.23
325.65 K | 27
328.15 K | 26.77
330.65 K | 26.56
333.15 K | 26.32

N#CCCCCC#N [hexanedinitrile]
Details | relative permittivity at zero frequency
278.15 K | 34.7
280.65 K | 34.35
283.15 K | 34.01
285.65 K | 33.67
288.15 K | 33.36
290.65 K | 33.04
293.15 K | 32.73
295.65 K | 32.41
298.15 K | 32.12
300.65 K | 31.83
303.15 K | 31.53
305.65 K | 31.26
308.15 K | 30.96
310.65 K | 30.67
313.15 K | 30.38
315.65 K | 30.09
318.15 K | 29.8
320.65 K | 29.5
323.15 K | 29.22
325.65 K | 28.94
328.15 K | 28.69
330.65 K | 28.46
333.15 K | 28.21
335.65 K | 27.98
338.15 K | 27.73
340.65 K | 27.52
343.15 K | 27.3
345.65 K | 27.09
348.15 K | 26.83
350.65 K | 26.6
353.15 K | 26.4
